Data reported in patent publication US20230167114A1, “MACROCYCLIC JAK INHIBITOR AND USE THEREOF” (Biopolar Hongye (Guangdong) Pharmaceutical Co., Ltd., priority 2020, published 2023).

Legend:
Assay type in all cases: biochemical
TYK2 = TYK2 (Homo sapiens, UniProt P29597); experiment: JAK kinase activity, homogeneous time-resolved fluorescence (TYK2 reaction system); details: ATP 2 μM, TYK2 protein 0.2 ng/μL; read-out: TYK 2 activity
Protocol: (§1) The activity measurement method of JAK kinase was to use homogeneous time-resolved fluorescence technique. The reaction was performed in 384 shallow well plates with a total reaction volume of 10 μL. The mixture of kinase protein, compound, ATP and substrate was carried out in a reaction buffer of 50 mM Hepes (pH7.0), NaN3 0.02%, BSA 0.01%, 0.1 mM orthocanadate, 5 mM MgCl2, and 1 mM DTT. After reacting for 1 hour, antibody capable of recognizing substrate phosphorylation and dye XL-615 and detection buffer (Cisbio) containing EDTA were added to the system. The reaction signal of kinase was detected by PE company's porous plate detector. The parameter settings were excitation light at 320 nm, emission light at 615 nm and 665 nm. The activity of JAK is indirectly reflected by the signal ratio of 665 nm and 615 nm. In the reaction, the background well without enzyme and the total enzyme activity well without compound were set.
(§2) The IC50 value of the compound inhibiting protein was obtained by the formula: Y=100/(1+10^((Log IC50−X)*HillSlope)).
In TYK2 reaction system, the concentration of ATP was 2 μM and the concentration of TYK2 protein was 0.2 ng/μL.

JAK2 = JAK2 (Homo sapiens, UniProt O60674); experiment: JAK kinase activity, homogeneous time-resolved fluorescence (JAK2 reaction system); details: ATP 2 μM, JAK2 protein 0.01 ng/μL
JAK2, sequence (O60674 whole entry): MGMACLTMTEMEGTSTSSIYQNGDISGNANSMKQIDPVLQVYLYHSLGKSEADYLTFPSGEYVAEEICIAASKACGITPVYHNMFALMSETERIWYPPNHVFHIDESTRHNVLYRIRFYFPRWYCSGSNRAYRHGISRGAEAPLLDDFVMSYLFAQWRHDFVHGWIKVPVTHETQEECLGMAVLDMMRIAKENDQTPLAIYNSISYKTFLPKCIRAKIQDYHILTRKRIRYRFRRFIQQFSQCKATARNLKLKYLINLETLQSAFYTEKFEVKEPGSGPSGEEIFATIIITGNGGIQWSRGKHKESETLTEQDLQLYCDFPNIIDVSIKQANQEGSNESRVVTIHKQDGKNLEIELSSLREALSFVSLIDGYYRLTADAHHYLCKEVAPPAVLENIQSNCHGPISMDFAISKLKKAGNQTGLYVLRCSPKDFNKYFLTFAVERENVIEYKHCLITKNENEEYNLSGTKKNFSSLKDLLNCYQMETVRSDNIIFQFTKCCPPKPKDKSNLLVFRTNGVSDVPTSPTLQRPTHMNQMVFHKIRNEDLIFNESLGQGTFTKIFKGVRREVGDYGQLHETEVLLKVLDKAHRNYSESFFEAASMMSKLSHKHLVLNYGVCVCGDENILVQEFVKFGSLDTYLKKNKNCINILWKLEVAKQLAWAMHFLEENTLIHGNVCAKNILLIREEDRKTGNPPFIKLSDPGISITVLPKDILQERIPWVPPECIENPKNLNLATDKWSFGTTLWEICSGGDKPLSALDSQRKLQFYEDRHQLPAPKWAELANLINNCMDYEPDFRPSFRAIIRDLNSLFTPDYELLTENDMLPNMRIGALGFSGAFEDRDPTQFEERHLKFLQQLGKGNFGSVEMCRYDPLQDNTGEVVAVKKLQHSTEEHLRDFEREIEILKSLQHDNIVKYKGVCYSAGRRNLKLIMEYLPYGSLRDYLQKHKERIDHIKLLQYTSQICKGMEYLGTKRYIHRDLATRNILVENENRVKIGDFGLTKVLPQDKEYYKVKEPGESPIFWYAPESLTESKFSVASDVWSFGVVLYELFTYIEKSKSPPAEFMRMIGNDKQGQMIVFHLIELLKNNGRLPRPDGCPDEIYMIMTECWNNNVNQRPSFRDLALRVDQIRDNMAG
Protocol: as §1, §2
In JAK2 reaction system, the concentration of ATP was 2 μM, and the concentration of JAK2 protein was 0.01 ng/μL.

JAK1 = JAK1 (Homo sapiens, UniProt P23458); experiment: JAK kinase activity, homogeneous time-resolved fluorescence (JAK1 reaction system); details: ATP 2 μM, JAK1 protein 0.2 ng/μL; read-out: JAK 1 activity
JAK1, sequence (P23458 whole entry): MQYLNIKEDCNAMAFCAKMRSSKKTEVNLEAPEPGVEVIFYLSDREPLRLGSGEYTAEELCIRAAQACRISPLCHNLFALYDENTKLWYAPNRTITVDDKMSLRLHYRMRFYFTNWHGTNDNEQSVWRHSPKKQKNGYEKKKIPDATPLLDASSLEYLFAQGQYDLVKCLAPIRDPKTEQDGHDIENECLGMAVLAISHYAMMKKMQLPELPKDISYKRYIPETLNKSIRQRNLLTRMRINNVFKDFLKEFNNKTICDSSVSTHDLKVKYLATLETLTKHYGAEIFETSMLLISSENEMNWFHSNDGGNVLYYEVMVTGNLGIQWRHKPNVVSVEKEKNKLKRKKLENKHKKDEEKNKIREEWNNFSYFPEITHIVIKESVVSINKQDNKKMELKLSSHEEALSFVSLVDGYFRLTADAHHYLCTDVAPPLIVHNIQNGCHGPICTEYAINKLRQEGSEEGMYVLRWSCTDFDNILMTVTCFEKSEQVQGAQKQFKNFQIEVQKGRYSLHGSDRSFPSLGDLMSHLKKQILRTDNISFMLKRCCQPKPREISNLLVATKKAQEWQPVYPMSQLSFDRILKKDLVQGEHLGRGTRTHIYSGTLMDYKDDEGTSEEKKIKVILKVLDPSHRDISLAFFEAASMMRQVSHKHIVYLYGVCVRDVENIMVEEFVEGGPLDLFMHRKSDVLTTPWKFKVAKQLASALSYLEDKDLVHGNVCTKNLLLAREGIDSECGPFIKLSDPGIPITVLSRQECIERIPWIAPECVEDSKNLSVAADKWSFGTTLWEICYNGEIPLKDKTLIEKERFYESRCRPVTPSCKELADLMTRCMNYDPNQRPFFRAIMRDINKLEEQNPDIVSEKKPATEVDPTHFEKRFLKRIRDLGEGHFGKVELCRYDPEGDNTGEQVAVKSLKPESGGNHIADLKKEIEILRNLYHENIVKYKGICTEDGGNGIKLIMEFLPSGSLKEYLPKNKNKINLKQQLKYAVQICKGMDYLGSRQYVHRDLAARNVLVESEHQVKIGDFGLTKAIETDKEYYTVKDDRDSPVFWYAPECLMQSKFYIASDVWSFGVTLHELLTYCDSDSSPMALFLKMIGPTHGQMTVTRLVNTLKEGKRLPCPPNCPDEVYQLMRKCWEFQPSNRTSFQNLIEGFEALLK
Protocol: as §1, §2
In JAK1 reaction system, the concentration of ATP was 2 μM, and the concentration of JAK1 protein was 0.2 ng/μL.

JAK3 = target: T1, JAK3 (Homo sapiens, UniProt P52333); experiment: JAK kinase activity, homogeneous time-resolved fluorescence (JAK3 reaction system); details: ATP 2 μM, JAK3 protein 0.04 ng/μL; read-out: JAK 3 activity
T1 sequence (P52333 1-1124): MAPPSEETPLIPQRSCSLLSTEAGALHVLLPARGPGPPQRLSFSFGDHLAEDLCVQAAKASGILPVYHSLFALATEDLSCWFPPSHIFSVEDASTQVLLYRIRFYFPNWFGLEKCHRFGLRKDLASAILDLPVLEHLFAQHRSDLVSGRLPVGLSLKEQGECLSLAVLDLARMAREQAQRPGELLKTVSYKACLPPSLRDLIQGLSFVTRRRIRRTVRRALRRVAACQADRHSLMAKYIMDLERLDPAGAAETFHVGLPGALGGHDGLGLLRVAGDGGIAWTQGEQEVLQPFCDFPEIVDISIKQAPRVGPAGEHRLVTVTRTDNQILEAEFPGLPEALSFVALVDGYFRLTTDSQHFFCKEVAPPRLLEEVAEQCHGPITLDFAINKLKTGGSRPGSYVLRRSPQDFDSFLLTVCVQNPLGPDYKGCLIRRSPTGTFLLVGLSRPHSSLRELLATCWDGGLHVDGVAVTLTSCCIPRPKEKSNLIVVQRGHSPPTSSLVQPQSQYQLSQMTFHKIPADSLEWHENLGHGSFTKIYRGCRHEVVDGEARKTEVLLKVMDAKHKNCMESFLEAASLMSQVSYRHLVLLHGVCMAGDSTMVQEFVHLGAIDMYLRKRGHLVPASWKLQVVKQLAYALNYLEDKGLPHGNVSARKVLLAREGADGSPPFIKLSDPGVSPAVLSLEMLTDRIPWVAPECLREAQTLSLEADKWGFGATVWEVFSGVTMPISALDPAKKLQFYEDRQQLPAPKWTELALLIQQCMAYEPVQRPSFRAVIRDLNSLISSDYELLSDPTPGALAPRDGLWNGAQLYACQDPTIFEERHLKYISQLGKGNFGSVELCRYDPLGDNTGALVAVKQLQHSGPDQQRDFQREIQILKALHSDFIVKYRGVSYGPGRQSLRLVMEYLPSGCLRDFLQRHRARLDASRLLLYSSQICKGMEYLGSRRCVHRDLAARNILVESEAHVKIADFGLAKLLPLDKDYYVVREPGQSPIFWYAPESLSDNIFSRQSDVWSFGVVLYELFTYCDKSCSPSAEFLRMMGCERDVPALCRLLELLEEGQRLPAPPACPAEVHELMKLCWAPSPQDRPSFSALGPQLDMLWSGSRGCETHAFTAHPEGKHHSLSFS
Protocol: as §1, §2
In JAK3 reaction system, the concentration of ATP was 2 μM, and the concentration of JAK3 protein was 0.04 ng/μL.

TYK2, sequence (P29597 whole entry): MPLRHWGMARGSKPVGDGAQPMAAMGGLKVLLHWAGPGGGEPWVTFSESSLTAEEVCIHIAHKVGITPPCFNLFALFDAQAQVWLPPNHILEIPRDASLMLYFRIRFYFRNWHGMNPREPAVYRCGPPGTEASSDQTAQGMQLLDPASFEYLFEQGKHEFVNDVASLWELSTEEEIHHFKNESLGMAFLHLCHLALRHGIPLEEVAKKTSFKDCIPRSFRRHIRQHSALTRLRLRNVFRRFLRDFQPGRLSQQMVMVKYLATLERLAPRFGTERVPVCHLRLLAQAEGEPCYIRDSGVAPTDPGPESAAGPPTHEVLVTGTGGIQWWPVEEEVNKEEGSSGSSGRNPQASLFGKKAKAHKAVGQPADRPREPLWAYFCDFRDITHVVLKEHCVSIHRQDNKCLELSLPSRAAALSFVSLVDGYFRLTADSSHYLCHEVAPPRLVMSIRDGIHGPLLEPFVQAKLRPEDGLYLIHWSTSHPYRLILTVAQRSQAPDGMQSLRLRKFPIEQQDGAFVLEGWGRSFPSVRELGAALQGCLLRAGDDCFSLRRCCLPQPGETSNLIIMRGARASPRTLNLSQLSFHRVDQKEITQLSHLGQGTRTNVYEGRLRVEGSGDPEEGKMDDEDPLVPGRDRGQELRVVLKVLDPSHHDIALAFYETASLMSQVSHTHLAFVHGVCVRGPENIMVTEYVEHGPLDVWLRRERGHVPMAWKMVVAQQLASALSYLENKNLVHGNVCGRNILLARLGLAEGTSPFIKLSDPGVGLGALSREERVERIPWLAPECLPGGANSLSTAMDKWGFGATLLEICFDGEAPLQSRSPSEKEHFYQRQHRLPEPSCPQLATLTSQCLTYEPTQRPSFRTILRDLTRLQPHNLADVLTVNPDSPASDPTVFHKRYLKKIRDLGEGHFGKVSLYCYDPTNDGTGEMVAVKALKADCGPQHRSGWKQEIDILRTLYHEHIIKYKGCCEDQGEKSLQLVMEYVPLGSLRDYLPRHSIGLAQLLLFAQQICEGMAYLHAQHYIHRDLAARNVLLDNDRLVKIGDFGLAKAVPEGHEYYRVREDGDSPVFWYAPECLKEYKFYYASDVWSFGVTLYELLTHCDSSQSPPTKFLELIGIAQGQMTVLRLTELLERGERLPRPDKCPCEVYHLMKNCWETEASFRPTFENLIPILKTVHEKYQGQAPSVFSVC

SMILES | IC50 (TYK2) [µM] | IC50 (JAK2) [µM] | IC50 (JAK1) [µM] | IC50 (JAK3) [µM]
Cc1cnc2nc1Nc1cccc(c1)CCCC(=O)N1CCN(CC1)c1cnc(F)c(c1)N2 [Compound 35, 2^6-fluoro-4^5-methyl-3,5-diaza-4(2,4)-pyrimidina-1(1,4)-piperazina-2(3,5)-pyridina-6(1,3)-benzenacyclodecaphan-10-one] | 0.101 to 1 | 0.011 to 0.1 | < 0.01 | 0.101 to 1
Cc1cnc2nc1Nc1cccc(c1)CCCNC(=O)c1ccc(cc1S(C)(=O)=O)-c1cnc(F)c(c1)N2 [Compound 25, 2^6-fluoro-4^5-methyl-1^3-(methylsulfonyl)-3,5,10-triaza-4(2,4)-pyrimidina-2(3,5)-pyridina-1(1,4),6(1,3)-dibenzenacycloundecaphan-11-one] | 0.101 to 1 | < 0.01 | < 0.01 | 0.011 to 0.1
Cc1cnc2nc1NCCCCCNC(=O)c1ccc(cc1C(=O)O)-c1cnc(F)c(c1)N2 [Compound 21] | 1 to 10 | 0.011 to 0.1 | 0.101 to 1 | 0.101 to 1
Cc1cnc2nc1Nc1cc(ccc1F)CCCNC(=O)c1ncc(cc1F)-c1cnc(F)c(c1)N2 [Compound 45, 1^3,2^6,6^6-trifluoro-4^5-methyl-3,5,10-triaza-4(2,4)-pyrimidina-1(5,2),2(3,5)-bipyridina-6(1,3)-benzenacycloundecaphan-11-one] | 1 to 10 | 0.011 to 0.1 | 0.011 to 0.1 | 0.101 to 1
Cc1cnc2nc1NCCCCCNC(=O)c1ccc(c(F)c1)-c1cnc(F)c(c1)N2 [Compound 3, 1^2,2^6-difluoro-4^5-methyl-3,5,11-triaza-4(2,4)-pyrimidina-2(3,5)-pyridina-1(1,4)-benzenacyclododecaphan-12-one] | 1 to 10 | 0.011 to 0.1 | 0.011 to 0.1 | 0.101 to 1
Cc1cnc2nc1Nc1ccccc1CCNC(=O)c1ccc(cc1F)-c1cnc(F)c(c1)N2 [Compound 30, 1^3,6^6-difluoro-4^5-methyl-1^3-3,5,9-triaza-4(2,4)-pyrimidina-1(5,2),2(3,5)-dipyridina-6(1,2)-benzenacyclodecaphan-10-one] | 1 to 10 | 0.011 to 0.1 | 0.011 to 0.1 | 0.101 to 1
Cc1cnc2nc1Nc1cccc(c1)CCNC(=O)c1ccc(cc1)-c1cnc(F)c(c1)N2 [Compound 22, 2^6-fluoro-4^5-methyl-3,5,9-triaza-4(2,4)-pyrimidina-2(3,5)-pyridina-1(1,4),6(1,3)-dibenzenacyclodecaphan-10-one] | 0.011 to 0.1 | < 0.01 | < 0.01 | < 0.01
Cc1cnc2nc1NCCCCCNC(=O)c1ccc(c(F)c1F)-c1cnc(F)c(c1)N2 [Compound 34, 1^2,l^3,2^6-trifluoro-4^5-methyl-3,5,11-triaza-4(2,4)-pyrimidina-2(3,5)-pyridina-1(1,4)-benzenacydododecaphan-12-one] | > 10 | 0.101 to 1 | 0.101 to 1 | 0.101 to 1
Cc1cnc2nc1NCCCCCNC(=O)c1ccc(cc1F)-c1cnc(F)c(c1)N2 [Compound 6, 1^3,2^6-difluoro-4^5-methyl-3,5,11-triaza-4(2,4)-pyrimidina-2(3,5)-pyridina-1(1,4)-benzenacyclododecaphan-12-one] | 1 to 10 | 0.101 to 1 | 0.011 to 0.1 | 0.101 to 1
Cc1cnc2nc1NCCCCCNC(=O)c1ccc(cc1S(C)(=O)=O)-c1cnc(F)c(c1)N2 [Compound 20, 2^6-fluoro-4^5-methyl-1^3-methylsulfonyl-3,5,11-triaza-4(2,4)-pyrimidina-2(3,5)-pyridina-1(1,4)-benzenacyclododecaphan-12-one] | > 10 | 1 to 10 | 0.011 to 0.1 | 1 to 10
Cc1cnc2nc1Nc1cccc(c1)CCCNC(=O)c1ccc(cc1C(=O)O)-c1cnc(F)c(c1)N2 [Compound 37, 2^6-fluoro-4^5-methyl-11-oxo-3,5,10-triaza-4(2,4)-pyrimidina-2(3,5)-pyridina-1(1,4),6(1,3)-dibenzenacycloundecaphan-1^3 - formic acid] | 1 to 10 | 0.011 to 0.1 | 0.011 to 0.1 | 0.101 to 1
Cc1cnc2nc1NCCCCNC(=O)c1ccc(cc1F)-c1cnc(F)c(c1)N2 [Compound 7, 1^2,2^6-difluoro-4^5-methyl-3,5,10-triaza-4(2,4)-pyrimidina-2(3,5)-pyridina-1(1,4)-benzenacycloundecaphan-11-one] | 1 to 10 | 0.101 to 1 | 0.011 to 0.1 | 1 to 10
